Source: patent US11976074B1, “Crystalline salts of Linsitinib” (Sling Therapeutics, Inc., priority 2023, dated 2024)
Entries after “also recorded” stand apart in the source; their conditions may differ. Blank lines part the entries; values can stand above or below the molecule they belong to.

Experiments:
Assay type in all cases: physicochemical
[1] = Physical stability testing of Esylate 4 (elevated temperature vacuum drying); conditions: vacuum oven, 60° C., 18 hours
Text: Esylate 4 was obtained from salt formation experiments using 1 Eq ESA at RT and ST in IPA and was further characterized using multiple techniques (Table 16).
Esylate 5 was initially only obtained in-tandem with Esylate 4 from slurries in several different solvent systems (FIG. 4). […] Due to the fact that the sample had been generated via drying at elevated temperature, the weight loss observed upon heating is likely due to surface or channel water absorbed during exposure to ambient conditions. […] Esylate 5 was not obtained from any of the interconversion slurries, indicating it is metastable under the conditions investigated (Table 18).

[2] = Interconversion slurries of esylate forms; conditions: 4° C., RT, 60° C.; MEK and 2:1 EtOH:HEP
Experimental: To find the thermodynamically stable form of the mono-salt, interconversion slurries were set-up at three different temperatures in two different solvent systems between Esylates 1, 2, 3 and Esylate 4+Esylate 5 (Table 11). A sample of Esylate 4+Esylate 5 was included as part of the interconversion slurry in-spite of Esylate 4 being a solvate as Esylate 5 could not be isolated as a separate pure phase until the drying experiment was carried out on Esylate 4 towards the end of the study. Slurries were set-up at 4° C., RT and at 60° C. in MEK and 2:1 EtOH:HEP, resulting in a total of six experiments which were run for a total of 7 days.

[3] = Water activity slurries of Esylate 2 seeded with Esylate 1; conditions: for PXRD result of water activity slurry: seeded with Esylate 1
Text: Water activity slurries were set-up with Esylate 2 and seeds of Esylate 1 to explore the presence of a potential hydrate and any associated critical water activity (Table 12). Four slurries were set-up in varying ratios of THF and H2O corresponding to 0.45, 0.63, 0.78 and 0.91 aw respectively.

[4] = DVS analysis (hygroscopicity) of Esylate 2
Text: Esylate 2 appears to be a stable polymorph of the esylate salt of linsitinib. Esylate 2 was isolated from a wide range of techniques, solvents and temperatures, and a few samples were characterized further (Table 13). NMR analysis confirmed it to be a 1:1 linsitinib esylate salt. […] This was further supported by successful indexing of its PXRD pattern, whose calculated unit cell volume pointed to a 1:1 salt (Section 0).

[5] = pH-solubility of linsitinib free base and selected salts (pH 1.5 to 6.5, overnight equilibration, HPLC); conditions: for solubility: overnight equilibration; for Final pH: after overnight equilibration
Experimental: The pH-solubility of selected salts (Phosphate 1, L-Malate 1, Esylate 1, and Esylate 2) was evaluated and compared with linsitinib free base. The solubility analysis was conducted in a manner consistent with a previous study that was performed with linsitinib free base. Aqueous solutions were prepared between pH 1.5 and pH 6.5 in 0.5 pH unit increments via titration of the solution using NaOH and HCl. For each salt or the free base, an attempt was made to reach saturation in each of the solutions by adding sufficient material to the solution such that excess solids remained. If saturation was achieved, the pH of the solution was measured and adjusted to the target pH and additional material was added if needed. The samples were then equilibrated overnight. The final pH of the solution was measured, the solids were filtered and selected samples were analyzed by PXRD. The concentration of linsitinib in the filtrate was quantitated by HPLC (diluted as needed). In some cases, significant drift (+1 pH unit or more) of the final pH from the target pH was observed after the overnight equilibration.
The pH-solubility data is shown graphically in FIG. 89. […] Indeed, it should be noted that in the majority of the low pH systems, higher initial dissolution/solubility was observed followed by precipitation of the material from solution upon longer equilibration.

[6] = 75% relative humidity stress test; conditions: 24 days, RT
Experimental: (§1) A scale-up attempt for Esylate 2 was carried out towards the relative humidity stress test and the mechanical stress test.

[7] = Mechanical stress test (neat grinding/milling); conditions: milled neat at max power for 30 minutes
Experimental: as §1

[8] = Equilibrium solubility in bio-relevant media (FaSSGF pH 1.6, FaSSIF pH 6.5)
Text: In addition to the pH-solubility data, a comparison of the equilibrium solubility of linsitinib free base and salts in two bio-relevant media (Table 28), fasted state simulated gastric fluid (FaSSGF pH 1.6) and intestinal fluid (FaSSIF pH 6.5) was completed. […] A saturated solution of Esylate 1 was not achieved during this study and therefore the equilibrium solubility could be higher than determined. It should be noted that variability of almost a full pH unit was noted among the samples making a direct comparison more challenging.

[9] = Differential scanning calorimetry (DSC); conditions: endotherms
Experimental: DSC analysis was carried out using a TA Instruments […] Discovery Series instrument. The instrument temperature calibrations were performed using indium. The DSC cell was kept under a nitrogen purge of 50 mL per minute during the analysis. The sample was placed in a standard, crimped aluminum pan and heated from approximately 25° C. to 300° C. at a rate of 10° C. per minute

[10] = Heating experiments with selected malate samples
Experimental: Based on the thermal data, Malate 4 and Malate 5 were heated at […] for 15 minutes. The solids were re-analyzed by PXRD after heating to investigate any form change upon dehydration. […] While there was an insufficient amount of sample to further characterize Malate 7, based on the conditions upon which it was generated, it could be a lower hydrate or an anhydrous form.

[11] = Thermogravimetric analysis (TGA); conditions: start to 83° C.
Experimental: The TG analysis was carried out using a TA Instruments […] Discovery Series instrument. The instrument balance was calibrated using class M weights and the temperature calibration was performed using alumel. The nitrogen purge was 10 mL per minute at the balance and 25 mL per minute at the furnace. The sample was placed into a pre-tared platinum pan and heated from approximately 25° C. to 300° C. at a rate of 10° C. per minute.

PXRD result after vacuum drying [1]: form change into Esylate 5 | Relative stability of the form in interconversion slurries [2]: metastable
SMILES: CCS(=O)(=O)O.C[C@]1(O)C[C@@H](c2nc(-c3ccc4ccc(-c5ccccc5)nc4c3)c3c(N)nccn32)C1 [Esylate 4]

PXRD result of water activity slurry ([3]; 93.1% THF in H2O, aw = 0.91, RT): Esylate 2 | PXRD result of water activity slurry ([3]; 94.7% THF in H2O, aw = 0.78, RT): Esylate 2 | PXRD result of water activity slurry ([3]; 96.2% THF in H2O, aw = 0.63, RT): Esylate 2 | PXRD result of water activity slurry ([3]; 97.6% THF in H2O, aw = 0.45, RT): Esylate 2 | Critical water activity, if present ([3]; THF/H2O slurries at RT): > 0.91 aw | Hygroscopicity by DVS [4]: slightly hygroscopic | Net weight change after DVS analysis [4]: no net weight change | Weight gain and loss during the sorption and desorption cycles [4]: 1% | DVS sorption total weight gain ([4]; 5-95% RH): 5-95% RH: Total 33.1% weight gain | DVS sorption weight gain ([4]; 35-75% RH): 35-75% RH: 12.0% weight gain | DVS desorption weight loss ([4]; 75-35% RH): 75-35% RH: 12.3% weight loss | DVS sorption weight gain ([4]; 75-95% RH): 75-95% RH: 16.9% weight gain | DVS desorption total weight loss ([4]; 95-5% RH): 95-5% RH: Total 33.1% weight loss | DVS desorption weight loss ([4]; 95-75% RH): 95-75% RH: 14.2% weight loss | Water up-take above 85% RH ([4]; above 85% RH): ~0.8% | DVS net weight change ([4]; after sorption and desorption): −0.04% weight loss | Relative stability of the form in interconversion slurries [2]: most stable form | solubility ([5]; aqueous solution, pH 6, aqueous buffer, thermodynamic from solid, target pH 6.0, read-out: Solubility): 0.7 mg/mL | Solubility compared to the free base and other salts ([5]; between pH 3 and pH 4): highest solubility | Solubility compared with the free base or Phosphate 1 ([5]; lower pH (<3)): significantly higher solubility | Final pH ([5]; target pH 1.5): 1.45 | solubility ([5]; target pH 1.5, * = clear solution, not equilibrium value): 106.19 mg/mL | Final pH ([5]; target pH 2.0): 2.06 | solubility ([5]; target pH 2.0, * = clear solution, not equilibrium value): 97.33 mg/mL | Final pH ([5]; target pH 2.5): 2.54 | solubility ([5]; target pH 2.5, * = clear solution, not equilibrium value): 71.00 mg/mL | Final pH ([5]; target pH 3.0): 3.04 | solubility ([5]; target pH 3.0, * = clear solution, not equilibrium value): 73.90 mg/mL | Final pH ([5]; target pH 3.5): 3.53 | solubility ([5]; target pH 3.5, * = clear solution, not equilibrium value): 38.04 mg/mL | Final pH ([5]; target pH 4.0): 3.99 | solubility ([5]; target pH 4.0, * = clear solution, not equilibrium value): 39.56 mg/mL | Final pH ([5]; target pH 4.5): 4.54 | solubility ([5]; target pH 4.5, * = clear solution, not equilibrium value): 18.90 mg/mL | Final pH ([5]; target pH 5.0): 4.96 | solubility ([5]; target pH 5.0): 20.46 mg/mL | Final pH ([5]; target pH 5.5): 5.48 | Final pH ([5]; target pH 6.0): 4.18 | Final pH ([5]; target pH 6.5): 4.34 | solubility ([5]; target pH 6.5): 0.002 mg/mL | PXRD result after 75% RH stress [6]: no form change; also recorded: Esylate 2 | Weight gain by TGA after 75% RH stress [6]: no weight gain | Final pH ([8]; FaSSGF (pH 1.6)): 3.25 | solubility ([8]; FaSSGF (pH 1.6)): 103.10 mg/mL | Final pH ([8]; FaSSIF (pH 6.5)): 3.72 | solubility ([8]; FaSSIF (pH 6.5)): 1.62 mg/mL
SMILES: CCS(=O)(=O)O.C[C@]1(O)C[C@@H](c2nc(-c3ccc4ccc(-c5ccccc5)nc4c3)c3c(N)nccn32)C1 [Esylate 2]
PXRD result after grinding [7]: poorly crystalline Esylate 2 along with amorphous residue | Solubility compared with the free base ([8]; FaSSGF (pH 1.6), in words): highest solubility by a significant margin

DSC Results, Endo [9]: Endo: 109 °C | XRPD result after heating ([10]; 92° C., 15 min): Malate 7 + pk | TGA Results (weight loss) [11]: 7.4%, start to 83 °C
SMILES: C[C@]1(O)C[C@@H](c2nc(-c3ccc4ccc(-c5ccccc5)nc4c3)c3c(N)nccn32)C1.O=C(O)C[C@H](O)C(=O)O [Malate 5]
Form change upon heating (PXRD) ([10]; heated for 15 minutes): dehydrate to a new form, designated as Malate 7
